{"source": "paper PMC5940854", "about": "“Nitrothiophene carboxamides, a novel narrow spectrum antibacterial series: Mechanism of action and Efficacy” (Scientific Reports, 2018)", "key": {"[1]": {"tested_on": "Shigella flexneri clinical strain", "experiment": "MIC, Shigella flexneri", "type": "cell-based", "experimental": "(§1) The inoculum used for all the experiments is derived from a single seed lot that is maintained as glycerol stocks at −80 °C and are sub cultured on LB plate for isolated colonies. Single colony of each strain is grown in M9 medium. All test compound stocks and dilutions are prepared in DMSO. Serial two-fold dilutions of compounds are prepared separately, with the concentrations ranging from 2 mg/mL to 0.015 mg/mL. To 150 µl (3–7 × 10^5 CFU/ml) of bacterial culture in 96 well microtitre plates, 3 μL compound from each of the dilutions is added to respective wells to obtain final concentrations ranging from 40 µg/mL to 0.3 µg/mL of the test compounds. Media control, culture control and appropriate reference drug controls are included. […] Growth is monitored by checking absorbance at 600 nm (A600). […] The samples from MIC and above concentrations are plated for MBC (Minimum Bactericidal Concentration). The samples are diluted 1:10 and plated on LB agar plates. […] The killing kinetics is determined by enumerating survivors at various time points following compound exposure. E. coli cells (~10^7 CFU/ml; A600 of 0.1) are treated with various concentrations (40 µg/mL to 0.3 µg/mL) of compounds in a 96-well microtitre plate. […] Data is expressed as the log10 CFU for each drug treatment."}, "[2]": {"tested_on": "E. coli mdtG knockout strain", "experiment": "MIC, efflux pump knockout mdtG", "type": "cell-based", "conditions": "Escherichia coli, read-out: MIC mdtG", "experimental": "as §1"}, "[3]": {"tested_on": "E. coli hsrA knockout strain", "experiment": "MIC, efflux pump knockout hsrA", "type": "cell-based", "conditions": "Escherichia coli, read-out: MIC hsrA", "experimental": "as §1"}, "[4]": {"tested_on": "E. coli bcr knockout strain", "experiment": "MIC, efflux pump knockout bcr", "type": "cell-based", "conditions": "Escherichia coli, read-out: MIC bcr", "experimental": "as §1"}, "[5]": {"tested_on": "E. coli yciM knockout strain", "experiment": "MIC, efflux pump knockout yciM", "type": "cell-based", "conditions": "Escherichia coli, read-out: MIC yciM", "experimental": "as §1"}, "[6]": {"tested_on": "E. coli macB knockout strain", "experiment": "MIC, efflux pump knockout macB", "type": "cell-based", "conditions": "Escherichia coli, read-out: MIC macB", "experimental": "as §1"}, "[7]": {"tested_on": "E. coli mdtK knockout strain", "experiment": "MIC, efflux pump knockout mdtK", "type": "cell-based", "conditions": "Escherichia coli, read-out: MIC mdtK", "experimental": "as §1"}, "[8]": {"tested_on": "E. coli mdfA knockout strain", "experiment": "MIC, efflux pump knockout mdfA", "type": "cell-based", "conditions": "Escherichia coli, read-out: MIC mdfA", "experimental": "as §1"}, "[9]": {"tested_on": "E. coli emrB knockout strain", "experiment": "MIC, efflux pump knockout emrB", "type": "cell-based", "conditions": "Escherichia coli, read-out: MIC emrB", "experimental": "as §1"}, "[10]": {"tested_on": "E. coli acrF knockout strain", "experiment": "MIC, efflux pump knockout acrF", "type": "cell-based", "conditions": "Escherichia coli, read-out: MIC acrF", "experimental": "as §1"}, "WT E. coli": {"tested_on": "WT E. coli", "experiment": "MIC on WT E. coli in the presence of PAβN", "type": "cell-based", "conditions": "Escherichia coli", "experimental": "as §1"}, "[11]": {"tested_on": "E. coli emrE knockout strain", "experiment": "MIC, efflux pump knockout emrE", "type": "cell-based", "conditions": "Escherichia coli, read-out: MIC emrE", "experimental": "as §1"}, "[12]": {"tested_on": "E. coli acrZ knockout strain", "experiment": "MIC, efflux pump knockout acrZ", "type": "cell-based", "conditions": "Escherichia coli, read-out: MIC acrZ", "experimental": "as §1"}, "[13]": {"tested_on": "E. coli mdtL knockout strain", "experiment": "MIC, efflux pump knockout mdtL", "type": "cell-based", "conditions": "Escherichia coli, read-out: MIC mdtL", "experimental": "as §1"}, "[14]": {"tested_on": "E. coli mdtB knockout strain", "experiment": "MIC, efflux pump knockout mdtB", "type": "cell-based", "conditions": "Escherichia coli, read-out: MIC mdtB", "experimental": "as §1"}, "[15]": {"tested_on": "E. coli emrY knockout strain", "experiment": "MIC, efflux pump knockout emrY", "type": "cell-based", "conditions": "Escherichia coli, read-out: MIC emrY", "experimental": "as §1"}, "E. coli BW25113": {"tested_on": "E. coli BW25113", "experiment": "Neutropenic thigh infection, E. coli BW25113", "type": "in vivo, BALB/c mice"}, "E. coli ∆acrB JW0451-2": {"tested_on": "E. coli ∆acrB JW0451-2", "experiment": "Neutropenic thigh infection, E. coli ∆acrB", "type": "in vivo, BALB/c mice"}}}
{"compound": "O=C(Nc1nc(-c2ccc(F)cc2F)cs1)c1ccc([N+](=O)[O-])s1", "note": "[compound 12, N-(4-(2,4-difluorophenyl)thiazol-2-yl)-5-nitrothiophene-2-carboxamide]", "values": [{"measurement": "MIC Shigella flexneri", "setting": "[1]", "value": 10, "unit": "µg/mL"}]}
{"compound": "Cc1sc(NC(=O)c2ccc([N+](=O)[O-])s2)nc1-c1ccccc1", "note": "[compound 7, N-(5-Methyl-4-phenylthiazol-2-yl)-5-nitrothiophene-2-carboxamide]", "values": [{"measurement": "MIC", "setting": "[2]", "value": "> 40", "unit": "µg/mL"}, {"measurement": "MIC", "setting": "[3]", "value": "> 40", "unit": "µg/mL"}, {"measurement": "MIC", "setting": "[4]", "value": "> 40", "unit": "µg/mL"}, {"measurement": "MIC", "setting": "[5]", "value": "> 40", "unit": "µg/mL"}, {"measurement": "MIC", "setting": "[6]", "value": "> 40", "unit": "µg/mL"}, {"measurement": "MIC", "setting": "[7]", "value": "> 40", "unit": "µg/mL"}, {"measurement": "MIC", "setting": "[8]", "value": "> 40", "unit": "µg/mL"}, {"measurement": "MIC", "setting": "[9]", "value": "> 40", "unit": "µg/mL"}, {"measurement": "MIC", "setting": "[10]", "value": "> 40", "unit": "µg/mL"}, {"measurement": "MIC", "setting": "WT E. coli", "value": "< 0.3", "unit": "µg/mL"}, {"measurement": "MIC", "setting": "[11]", "value": "> 40", "unit": "µg/mL"}, {"measurement": "MIC", "setting": "[12]", "value": "> 40", "unit": "µg/mL"}, {"measurement": "MIC", "setting": "[13]", "value": "> 40", "unit": "µg/mL"}, {"measurement": "MIC", "setting": "[14]", "value": "> 40", "unit": "µg/mL"}, {"measurement": "MIC", "setting": "[15]", "value": "> 40", "unit": "µg/mL"}]}
{"compound": "O=C(Nc1nc(-c2ccc(F)cc2)cs1)c1ccc([N+](=O)[O-])s1", "note": "[compound 15, N-(4-(4-Fluorophenyl)thiazol-2-yl)-5-nitrothiophene-2-carboxamide]", "values": [{"measurement": "Log10CFU Mean Diff. vs. Untreated Controls", "setting": "E. coli BW25113; Study TI-2014-008, BW25113, 30mg/kg per oral", "value": 0.9167, "unit": "Log10CFU"}, {"measurement": "Log10CFU Mean Diff. vs. Untreated Controls", "setting": "E. coli BW25113; Study TI-2014-008, BW25113, 100mg/kg per oral", "value": 1.643, "unit": "Log10CFU"}, {"measurement": "efficacy in thigh infection model (in words)", "setting": "E. coli BW25113; WT E. coli BW25113", "value": "significantly bactericidal"}, {"measurement": "efficacy in thigh infection model (in words)", "setting": "E. coli ∆acrB JW0451-2; E. coli ∆acrB JW0451-2", "value": "significantly bactericidal"}, {"measurement": "Log10CFU Mean Diff. vs. Untreated Controls", "setting": "E. coli ∆acrB JW0451-2; Study TI-2014-007, ∆acrB JW0451-2, 10mg/kg per oral", "value": 0.2933, "unit": "Log10CFU"}, {"measurement": "Log10CFU Mean Diff. vs. Untreated Controls", "setting": "E. coli ∆acrB JW0451-2; Study TI-2014-007, ∆acrB JW0451-2, 30mg/kg per oral", "value": 1.943, "unit": "Log10CFU"}, {"measurement": "Log10CFU Mean Diff. vs. Untreated Controls", "setting": "E. coli ∆acrB JW0451-2; Study TI-2014-007, ∆acrB JW0451-2, 100mg/kg per oral, 6 hours post treatment", "value": 2.436, "unit": "Log10CFU"}, {"measurement": "Log10CFU Mean Diff. vs. Untreated Controls", "setting": "E. coli ∆acrB JW0451-2; Study TI-2014-008, ∆acrB JW0451-2, 30mg/kg per oral", "value": 1.497, "unit": "Log10CFU"}, {"measurement": "Log10CFU Mean Diff. vs. Untreated Controls", "setting": "E. coli ∆acrB JW0451-2; Study TI-2014-008, ∆acrB JW0451-2, 100mg/kg per oral", "value": 2.253, "unit": "Log10CFU"}]}
